Source: the supplement of paper PMC10307832

Tests used:
Assay in all cases: relative viability (nuclei count vs DMSO), 5 days (fraction); higher = more cells survive
Linsitinib + AZD7762 = compound: C[C@]1(O)C[C@@H](c2nc(-c3ccc4ccc(-c5ccccc5)nc4c3)c3c(N)nccn32)C1 [Linsitinib] + NC(=O)Nc1cc(-c2cccc(F)c2)sc1C(=O)N[C@H]1CCCNC1 [AZD7762] (partner 0.2 µM)
How it was run: (§1)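 Each reported value is a median over duplicate plates. It expresses relative viability: treated-well nuclei count divided by vehicle-well nuclei count. Lung cancer cell lines in 1536-well plates were dosed by pin tool a day after seeding, alone with one drug or with a fixed anchor-drug dose plus five library-drug doses (not always all listed) in √10 steps, and nuclei were counted after 5 days.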

Linsitinib + Alpelisib = compound: C[C@]1(O)C[C@@H](c2nc(-c3ccc4ccc(-c5ccccc5)nc4c3)c3c(N)nccn32)C1 [Linsitinib] + Cc1nc(NC(=O)N2CCC[C@H]2C(N)=O)sc1-c1ccnc(C(C)(C)C(F)(F)F)c1 [Alpelisib] (partner 2 µM)
How it was run: as §1

Linsitinib + Navitoclax = compound: C[C@]1(O)C[C@@H](c2nc(-c3ccc4ccc(-c5ccccc5)nc4c3)c3c(N)nccn32)C1 [Linsitinib] + CC1(C)CCC(c2ccc(Cl)cc2)=C(CN2CCN(c3ccc(C(=O)NS(=O)(=O)c4ccc(N[C@H](CCN5CCOCC5)CSc5ccccc5)c(S(=O)(=O)C(F)(F)F)c4)cc3)CC2)C1 [Navitoclax] (partner 0.5 µM)
How it was run: as §1

Ispinesib + Navitoclax = compound: Cc1ccc(C(=O)N(CCCN)[C@@H](c2nc3cc(Cl)ccc3c(=O)n2Cc2ccccc2)C(C)C)cc1 [Ispinesib] + CC1(C)CCC(c2ccc(Cl)cc2)=C(CN2CCN(c3ccc(C(=O)NS(=O)(=O)c4ccc(N[C@H](CCN5CCOCC5)CSc5ccccc5)c(S(=O)(=O)C(F)(F)F)c4)cc3)CC2)C1 [Navitoclax] (partner 0.5 µM)
How it was run: as §1

Row | Cell Line | relative viability (Linsitinib + AZD7762; first compound 0.01 µM) | relative viability (Linsitinib + AZD7762; first compound 0.03162 µM) | relative viability (Linsitinib + AZD7762; first compound 0.1 µM) | relative viability (Linsitinib + AZD7762; first compound 0.3162 µM) | relative viability (Linsitinib + AZD7762; first compound 1 µM) | relative viability (Linsitinib + Alpelisib; first compound 0.01 µM) | relative viability (Linsitinib + Alpelisib; first compound 0.03162 µM) | relative viability (Linsitinib + Alpelisib; first compound 0.1 µM) | relative viability (Linsitinib + Alpelisib; first compound 0.3162 µM) | relative viability (Linsitinib + Alpelisib; first compound 1 µM) | relative viability (Linsitinib + Navitoclax; first compound 0.01 µM) | relative viability (Linsitinib + Navitoclax; first compound 0.03162 µM) | relative viability (Linsitinib + Navitoclax; first compound 0.1 µM) | relative viability (Linsitinib + Navitoclax; first compound 0.3162 µM) | relative viability (Linsitinib + Navitoclax; first compound 1 µM) | relative viability (Ispinesib + Navitoclax; first compound 0.001 µM) | relative viability (Ispinesib + Navitoclax; first compound 0.003162 µM) | relative viability (Ispinesib + Navitoclax; first compound 0.01 µM) | relative viability (Ispinesib + Navitoclax; first compound 0.03162 µM) | relative viability (Ispinesib + Navitoclax; first compound 0.1 µM)
1 | NCI-H1975 | 0.697 | 0.673 | 0.685 | 0.685 | 0.562 | 0.608 | 0.62 | 0.647 | 0.543 | 0.453 | 1.08 | 0.941 | 1.04 | 1.12 | 0.8 | 1.16 | 1.25 | 1.27 | 1.14 | 0.186
2 | NCI-H1993 | 0.734 | 0.773 | 0.623 | 0.509 | 0.513 | 0.723 | 0.568 | 0.701 | 0.75 | 0.64 | 0.937 | 0.902 | 0.839 | 1.01 | 0.6 | 0.869 | 0.944 | 0.87 | 0.84 | 0.526
3 | NCI-H2085 | 0.916 | 0.837 | 1.04 | 0.896 | 0.939 | 0.886 | 1.12 | 1.06 | 0.888 | 0.922 | 1.03 | 1.11 | 1.22 | 1.07 | 1.2 | 1.12 | 1.17 | 1.19 | 1.13 | 0.672
4 | NCI-H2087 | 1.15 | 1.23 | 1.38 | 1.34 | 1.13 | 1.06 | 1.2 | 1.02 | 0.853 | 0.815 | 1.1 | 1.05 | 0.861 | 0.843 | 0.821 | 0.976 | 1.07 | 1.23 | 0.933 | 0.156
5 | NCI-H2126 | 0.972 | 0.997 | 1.05 | 0.871 | 0.887 | 0.726 | 0.801 | 0.743 | 0.682 | 0.717 | 0.95 | 0.808 | 0.945 | 0.925 | 0.878 | 0.844 | 0.862 | 0.861 | 0.842 | 0.818
6 | NCI-H2170 | 0.918 | 0.959 | 0.768 | – | 0.68 | 0.865 | 0.777 | 0.698 | 0.745 | 0.68 | 0.615 | 0.622 | 0.456 | 0.543 | 0.501 | 0.617 | 0.61 | 0.624 | 0.324 | 0.258
7 | NCI-H2347 | 0.645 | 0.736 | 0.792 | 0.747 | 0.669 | 1.01 | 1.21 | 1.01 | 0.595 | 0.902 | 0.731 | 0.915 | 0.717 | 0.533 | 0.754 | 0.819 | 0.727 | 0.967 | 0.762 | 0.609
8 | NCI-H2405 | 0.74 | 0.662 | 0.711 | 0.859 | 0.474 | 0.86 | 0.625 | 1.04 | 0.632 | 0.698 | 0.906 | 0.72 | 0.954 | 0.716 | 0.846 | 0.884 | 0.72 | 0.942 | 0.779 | 0.276
